{"source": "patent US8952157B2", "about": "“Apoptosis-inducing agents for the treatment of cancer and immune and autoimmune diseases” (AbbVie Inc., priority 2008, dated 2015)", "target": "GST-Bcl-2 (Homo sapiens (Human), UniProt P10415)", "sequence (P10415 whole entry)": "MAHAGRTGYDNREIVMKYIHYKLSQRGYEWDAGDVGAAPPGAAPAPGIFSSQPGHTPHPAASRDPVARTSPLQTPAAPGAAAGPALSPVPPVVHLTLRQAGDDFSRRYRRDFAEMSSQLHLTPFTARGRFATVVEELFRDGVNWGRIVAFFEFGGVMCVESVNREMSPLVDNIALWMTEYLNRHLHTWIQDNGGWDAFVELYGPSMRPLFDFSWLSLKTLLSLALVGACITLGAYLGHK", "assay": "Time Resolved-Fluorescence Resonance Energy Transfer (TR-FRET) Bcl-2 binding assay", "details": "GST-Bcl-2 1 nM, F-Bak peptide probe 100 nM, Tb-anti-GST antibody 1 nM; Ki by Wang's equation", "outline": "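Competition TR-FRET: GST-Bcl-2 with fluorescent Bak peptide probe and Tb-anti-GST antibody, compounds serially diluted from 50 μM (2× start, 10% DMSO).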", "data": [{"molecule": "COc1cccc(Oc2cc(N3CCN(CC4=C(c5ccc(Cl)cc5)CC(C)(C)CC4)CC3)ccc2C(=O)NS(=O)(=O)c2ccc(NC3CCN(C)CC3)c([N+](=O)[O-])c2)c1", "note": "[Example 166, 4-(4-{[2-(4-chlorophenyl)-4,4-dimethylcyclohex-1-en-1-yl]methyl}piperazin-1-yl)-2-(3-methoxyphenoxy)-N-({4-[(1-methylpiperidin-4-yl)amino]-3-nitrophenyl}sulfonyl)benzamide]", "values": [{"measurement": "Ki", "result": 0.082, "unit": "nM"}]}, {"molecule": "CN1CCC(Nc2ccc(S(=O)(=O)NC(=O)c3ccc(N4CCN(CC5=C(c6ccc(Cl)cc6)CC(C)(C)CC5)CC4)cc3Oc3cccc(CO)c3)cc2[N+](=O)[O-])CC1", "note": "[Example 167, 4-(4-{[2-(4-chlorophenyl)-4,4-dimethylcyclohex-1-en-1-yl]methyl}piperazin-1-yl)-2-[3-(hydroxymethyl)phenoxy]-N-({4-[(1-methylpiperidin-4-yl)amino]-3-nitrophenyl}sulfonyl)benzamide]", "values": [{"measurement": "Ki", "result": 1.34, "unit": "nM"}]}, {"molecule": "CN1CCC(Nc2ccc(S(=O)(=O)NC(=O)c3ccc(N4CCN(CC5=C(c6ccc(Cl)cc6)CC(C)(C)CC5)CC4)cc3Oc3cccc(O)c3Cl)cc2[N+](=O)[O-])CC1", "note": "[Example 171, 2-(2-chloro-3-hydroxyphenoxy)-4-(4-{[2-(4-chlorophenyl)-4,4-dimethylcyclohex-1-en-1-yl]methyl}piperazin-1-yl)-N-({4-[(1-methylpiperidin-4-yl)amino]-3-nitrophenyl}sulfonyl)benzamide]", "values": [{"measurement": "Ki", "result": 0.066, "unit": "nM"}]}, {"molecule": "CC1(C)CCC(CN2CCN(c3ccc(C(=O)NS(=O)(=O)c4ccc(NC5CCN(CCCc6ccccc6)CC5)c([N+](=O)[O-])c4)c(Oc4cccc(Cl)c4)c3)CC2)=C(c2ccc(Cl)cc2)C1", "note": "[Example 172, 2-(3-chlorophenoxy)-4-(4-{[2-(4-chlorophenyl)-4,4-dimethylcyclohex-1-en-1-yl]methyl}piperazin-1-yl)-N-[(3-nitro-4-{[1-(3-phenylpropyl)piperidin-4-yl]amino}phenyl)sulfonyl]benzamide]", "values": [{"measurement": "Ki", "result": 0.549, "unit": "nM"}]}, {"molecule": "COCCN1CCC(Nc2ccc(S(=O)(=O)NC(=O)c3ccc(N4CCN(CC5=C(c6ccc(Cl)cc6)CC(C)(C)CC5)CC4)cc3Oc3cccc(Cl)c3)cc2[N+](=O)[O-])CC1", "note": "[Example 173, 2-(3-chlorophenoxy)-4-(4-{[2-(4-chlorophenyl)-4,4-dimethylcyclohex-1-en-1-yl]methyl}piperazin-1-yl)-N-[(4-{[1-(2-methoxyethyl)piperidin-4-yl]amino}-3-nitrophenyl)sulfonyl]benzamide]", "values": [{"measurement": "Ki", "result": 0.019, "unit": "nM"}]}, {"molecule": "CCN1CCC(Nc2ccc(S(=O)(=O)NC(=O)c3ccc(N4CCN(CC5=C(c6ccc(Cl)cc6)CC(C)(C)CC5)CC4)cc3Oc3cccc(Cl)c3)cc2[N+](=O)[O-])CC1", "note": "[Example 174, 2-(3-chlorophenoxy)-4-(4-{[2-(4-chlorophenyl)-4,4-dimethylcyclohex-1-en-1-yl]methyl}piperazin-1-yl)-N-({4-[(1-ethylpiperidin-4-yl)amino]-3-nitrophenyl}sulfonyl)benzamide]", "values": [{"measurement": "Ki", "result": 0.037, "unit": "nM"}]}, {"molecule": "CC(C)N1CCC(Nc2ccc(S(=O)(=O)NC(=O)c3ccc(N4CCN(CC5=C(c6ccc(Cl)cc6)CC(C)(C)CC5)CC4)cc3Oc3cccc(Cl)c3)cc2[N+](=O)[O-])CC1", "note": "[Example 175, 2-(3-chlorophenoxy)-4-(4-{[2-(4-chlorophenyl)-4,4-dimethylcyclohex-1-en-1-yl]methyl}piperazin-1-yl)-N-({4-[(1-isopropylpiperidin-4-yl)amino]-3-nitrophenyl}sulfonyl)benzamide]", "values": [{"measurement": "Ki", "result": 0.046, "unit": "nM"}]}, {"molecule": "CN1CCC(Nc2ccc(S(=O)(=O)NC(=O)c3ccc(N4CCN(CC5=C(c6ccc(Cl)cc6)CC(C)(C)CC5)CC4)cc3Oc3cccc(O)c3)cc2[N+](=O)[O-])CC1", "note": "[Example 176, 4-(4-{[2-(4-chlorophenyl)-4,4-dimethylcyclohex-1-en-1-yl]methyl}piperazin-1-yl)-2-(3-hydroxyphenoxy)-N-({4-[(1-methylpiperidin-4-yl)amino]-3-nitrophenyl}sulfonyl)benzamide]", "values": [{"measurement": "Ki", "result": 0.24, "unit": "nM"}]}, {"molecule": "CN1CCC(Nc2ccc(S(=O)(=O)NC(=O)c3ccc(N4CCN(CC5=C(c6ccc(Cl)cc6)CC(C)(C)CC5)CC4)cc3Oc3cccc(F)c3Cl)cc2[N+](=O)[O-])CC1", "note": "[Example 177, 2-(2-chloro-3-fluorophenoxy)-4-(4-{[2-(4-chlorophenyl)-4,4-dimethylcyclohex-1-en-1-yl]methyl}piperazin-1-yl)-N-({4-[(1-methylpiperidin-4-yl)amino]-3-nitrophenyl}sulfonyl)benzamide]", "values": [{"measurement": "Ki", "result": 0.037, "unit": "nM"}]}, {"molecule": "CC1(C)CCC(CN2CCN(c3ccc(C(=O)NS(=O)(=O)c4ccc(NC5CCN(C6CCOCC6)CC5)c([N+](=O)[O-])c4)c(Oc4cccc(F)c4Cl)c3)CC2)=C(c2ccc(Cl)cc2)C1", "note": "[Example 178, 2-(2-chloro-3-fluorophenoxy)-4-(4-{[2-(4-chlorophenyl)-4,4-dimethylcyclohex-1-en-1-yl]methyl}piperazin-1-yl)-N-({3-nitro-4-[(1-tetrahydro-2H-pyran-4-ylpiperidin-4-yl)amino]phenyl}sulfonyl)benzamide]", "values": [{"measurement": "Ki", "result": 0.175, "unit": "nM"}]}, {"molecule": "CN(C)CCCNc1ccc(S(=O)(=O)NC(=O)c2ccc(N3CCN(CC4=C(c5ccc(Cl)cc5)CC(C)(C)CC4)CC3)cc2Oc2ccccc2Cl)cc1[N+](=O)[O-]", "note": "[Example 179, 2-(2-chlorophenoxy)-4-(4-{[2-(4-chlorophenyl)-4,4-dimethylcyclohex-1-en-1-yl]methyl}piperazin-1-yl)-N-[(4-{[3-(dimethylamino)propyl]amino}-3-nitrophenyl)sulfonyl]benzamide]", "values": [{"measurement": "Ki", "result": 0.036, "unit": "nM"}]}, {"molecule": "COc1ccccc1Oc1cc(N2CCN(CC3=C(c4ccc(Cl)cc4)CC(C)(C)CC3)CC2)ccc1C(=O)NS(=O)(=O)c1ccc(NC2CCN(C)CC2)c([N+](=O)[O-])c1", "note": "[Example 180, 4-(4-{[2-(4-chlorophenyl)-4,4-dimethylcyclohex-1-en-1-yl]methyl}piperazin-1-yl)-2-(2-methoxyphenoxy)-N-({4-[(1-methylpiperidin-4-yl)amino]-3-nitrophenyl}sulfonyl)benzamide]", "values": [{"measurement": "Ki", "result": 0.112, "unit": "nM"}]}, {"molecule": "Cc1ccccc1Oc1cc(N2CCN(CC3=C(c4ccc(Cl)cc4)CC(C)(C)CC3)CC2)ccc1C(=O)NS(=O)(=O)c1ccc(NC2CCN(C)CC2)c([N+](=O)[O-])c1", "note": "[Example 181, 4-(4-{[2-(4-chlorophenyl)-4,4-dimethylcyclohex-1-en-1-yl]methyl}piperazin-1-yl)-2-(2-methylphenoxy)-N-({4-[(1-methylpiperidin-4-yl)amino]-3-nitrophenyl}sulfonyl)benzamide]", "values": [{"measurement": "Ki", "result": 0.119, "unit": "nM"}]}, {"molecule": "Cc1cccc(Oc2cc(N3CCN(CC4=C(c5ccc(Cl)cc5)CC(C)(C)CC4)CC3)ccc2C(=O)NS(=O)(=O)c2ccc(NC3CCN(C)CC3)c([N+](=O)[O-])c2)c1", "note": "[Example 182, 4-(4-{[2-(4-chlorophenyl)-4,4-dimethylcyclohex-1-en-1-yl]methyl}piperazin-1-yl)-2-(3-methylphenoxy)-N-({4-[(1-methylpiperidin-4-yl)amino]-3-nitrophenyl}sulfonyl)benzamide]", "values": [{"measurement": "Ki", "result": 0.172, "unit": "nM"}]}, {"molecule": "CN1CCC(Nc2ccc(S(=O)(=O)NC(=O)c3ccc(N4CCN(Cc5cc6c(cc5-c5ccc(Cl)cc5)OCO6)CC4)cc3Oc3ccccc3Cl)cc2[N+](=O)[O-])CC1", "note": "[Example 183, 2-(2-chlorophenoxy)-4-(4-{[6-(4-chlorophenyl)-1,3-benzodioxol-5-yl]methyl}piperazin-1-yl)-N-({4-[(1-methylpiperidin-4-yl)amino]-3-nitrophenyl}sulfonyl)benzamide]", "values": [{"measurement": "Ki", "result": 2.53, "unit": "nM"}]}, {"molecule": "CN1CCN(Nc2ccc(S(=O)(=O)NC(=O)c3ccc(N4CCN(CC5=C(c6ccc(Cl)cc6)CC(C)(C)CC5)CC4)cc3Oc3ccccc3Cl)cc2[N+](=O)[O-])CC1", "note": "[Example 184, 2-(2-chlorophenoxy)-4-(4-{[2-(4-chlorophenyl)-4,4-dimethylcyclohex-1-en-1-yl]methyl}piperazin-1-yl)-N-({4-[(4-methylpiperazin-1-yl)amino]-3-nitrophenyl}sulfonyl)benzamide]", "values": [{"measurement": "Ki", "result": 0.155, "unit": "nM"}]}, {"molecule": "CN1CCN(Nc2ccc(S(=O)(=O)NC(=O)c3ccc(N4CCN(CC5=C(c6ccc(Cl)cc6)CC(C)(C)OC5)CC4)cc3Oc3cccc(Cl)c3)cc2[N+](=O)[O-])CC1", "note": "[Example 185, 2-(3-chlorophenoxy)-4-(4-{[4-(4-chlorophenyl)-6,6-dimethyl-5,6-dihydro-2H-pyran-3-yl]methyl}piperazin-1-yl)-N-({4-[(4-methylpiperazin-1-yl)amino]-3-nitrophenyl}sulfonyl)benzamide]", "values": [{"measurement": "Ki", "result": 0.083, "unit": "nM"}]}, {"molecule": "CN1CCN(Nc2ccc(S(=O)(=O)NC(=O)c3ccc(N4CCN(CC5=C(c6ccc(Cl)cc6)CC(C)(C)OC5)CC4)cc3Oc3cccc(F)c3F)cc2[N+](=O)[O-])CC1", "note": "[Example 186, 4-(4-{[4-(4-chlorophenyl)-6,6-dimethyl-5,6-dihydro-2H-pyran-3-yl]methyl}piperazin-1-yl)-2-(2,3-difluorophenoxy)-N-({4-[(4-methylpiperazin-1-yl)amino]-3-nitrophenyl}sulfonyl)benzamide]", "values": [{"measurement": "Ki", "result": 0.035, "unit": "nM"}]}, {"molecule": "CC1(C)CCC(CN2CCN(c3ccc(C(=O)NS(=O)(=O)c4ccc(NC5CCN(CC6CC6)CC5)c([N+](=O)[O-])c4)c(Oc4cccc(Cl)c4)c3)CC2)=C(c2ccc(Cl)cc2)C1", "note": "[Example 187, 2-(3-chlorophenoxy)-4-(4-{[2-(4-chlorophenyl)-4,4-dimethylcyclohex-1-en-1-yl]methyl}piperazin-1-yl)-N-[(4-{[1-(cyclopropylmethyl)piperidin-4-yl]amino}-3-nitrophenyl)sulfonyl]benzamide]", "values": [{"measurement": "Ki", "result": 0.054, "unit": "nM"}]}, {"molecule": "CC1(C)CCC(CN2CCN(c3ccc(C(=O)NS(=O)(=O)c4ccc(NC5CCN(CC6CC6)CC5)c([N+](=O)[O-])c4)c(Oc4ccccc4Cl)c3)CC2)=C(c2ccc(Cl)cc2)C1", "note": "[Example 188, 2-(2-chlorophenoxy)-4-(4-{[2-(4-chlorophenyl)-4,4-dimethylcyclohex-1-en-1-yl]methyl}piperazin-1-yl)-N-[(4-{[1-(cyclopropylmethyl)piperidin-4-yl]amino}-3-nitrophenyl)sulfonyl]benzamide]", "values": [{"measurement": "Ki", "result": 0.073, "unit": "nM"}]}]}
